#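 Dose response: 5 concentrations. Exposure: 48 h. Format: 96-well plates. Endpoint: linear interpolation; highest concentration if not reached. TGI marks complete inhibition of growth.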
# Tests used:
# Assay in all cases: NCI anticancer screen, dose series, 48 h
# NCI-H226 lung = system: NCI-H226 lung
# 786-0 renal = system: 786-0 renal
# MDA-MB-231 breast = system: MDA-MB-231 breast
# HCT-15 colon = system: HCT-15 colon
# ACHN renal = system: ACHN renal
# EKVX NSCLC = system: EKVX NSCLC
# CAKI-1 renal = system: CAKI-1 renal
# OVCAR-4 ovarian = system: OVCAR-4 ovarian
# CCRF-CEM leukemia = system: CCRF-CEM leukemia
# TK-10 renal = system: TK-10 renal
# MOLT-4 leukemia = system: MOLT-4 leukemia
# RXF 393 renal = system: RXF 393 renal
# SNB-19 CNS = system: SNB-19 CNS
# SR leukemia = system: SR leukemia
# HCT-116 colon = system: HCT-116 colon
# LOX IMVI melanoma = system: LOX IMVI melanoma
Compound,TGI (NCI-H226 lung) [µM],TGI (786-0 renal) [µM],TGI (MDA-MB-231 breast) [µM],TGI (HCT-15 colon) [µM],TGI (ACHN renal) [µM],TGI (EKVX NSCLC) [µM],TGI (CAKI-1 renal) [µM],TGI (OVCAR-4 ovarian) [µM],TGI (CCRF-CEM leukemia) [µM],TGI (TK-10 renal) [µM],TGI (MOLT-4 leukemia) [µM],TGI (RXF 393 renal) [µM],TGI (SNB-19 CNS) [µM],TGI (SR leukemia) [µM],TGI (HCT-116 colon) [µM],TGI (LOX IMVI melanoma) [µM]
O=C(N/N=C/C=C/c1ccc([N+](=O)[O-])o1)c1ccc(C(=O)N/N=C/C=C/c2ccc([N+](=O)[O-])o2)cc1,> 100,> 72.1,97.3,> 100,> 59.1,> 100,> 90,> 100,> 20.3,> 69.7,> 43.6,84,> 100,> 73.4,25.7,> 75.8
O=C1CC2SC(COCc3ccccc3)(CCN2Cc2ccccc2)C1 (configuration not stated),> 100,> 100,> 100,> 100,> 100,> 100,> 100,> 100,> 100,76.3,91.9,> 100,> 100,> 100,> 100,> 100
COC(=O)C1=NN2c3ccccc3CN([C@@H](C)c3ccccc3)C(=O)[C@@H]2[C@H]1c1ccccc1,> 100,> 100,> 100,> 100,> 100,> 100,> 100,> 100,> 100,> 100,> 100,> 100,> 100,> 100,> 100,> 100
CCCCc1c2c(c(C)c3c1C(=O)OC3)Oc1ccccc1O2,> 81.1,> 36.9,> 55.6,> 100,> 100,> 100,> 100,> 95.6,> 100,> 71.3,> 100,7.98,> 75,> 40.1,27.1,> 100
O=C1C(S(=O)(=O)c2ccccc2)=C(CS(=O)(=O)c2ccccc2)[C@@H](OCc2ccccc2)[C@@H]1OCc1ccccc1,37.3,> 100,60,44,> 100,> 100,> 100,57.8,42.7,> 100,46.7,27.8,> 100,33.5,27,32.9
Cc1ccc(N=C2C(c3ccccc3)=C(SC3=C(c4ccccc4)C(=Nc4ccc(C)cc4)c4ccccc43)c3ccccc32)cc1,> 63.1,22.4,38.7,> 100,18.3,43.9,65.6,17.2,> 100,> 100,> 100,27.9,17.1,> 100,> 100,> 100
CC1=NN(c2nc(N)nc(/C(C#N)=C\c3cccc([N+](=O)[O-])c3)n2)C(C)(C)C1,> 42.7,32,25.1,> 47.6,> 51.4,> 100,> 94.1,> 60.9,> 66.8,58.8,> 66.5,14.3,88.5,> 73.1,> 42.1,36.3
Cc1ccc(N2C(N)=C(C#N)C(C#N)(C#N)C2c2ccccc2)cc1 (configuration not stated),38.9,30.3,25.3,22.6,28.2,46,30.9,26.9,7.33,28,8.27,25.3,34.5,33.7,14.4,23.9
CCCC(=O)NC(Nc1ccc(S(=O)(=O)Nc2ccc(OC)nn2)cc1)(C(F)(F)F)C(F)(F)F,> 100,> 100,> 100,> 100,> 100,> 100,> 100,> 100,> 100,> 100,> 100,> 100,> 100,> 100,> 100,> 100
CC1(C)C2CCC(O)(C2)C1N (configuration not stated),> 100,> 100,> 100,> 100,> 100,> 100,> 100,> 100,> 100,> 100,> 100,> 100,> 100,> 100,> 100,> 100
CCOC(=O)C(Cc1ccc(N(CCCl)CCCl)cc1)NC(=O)CCCN1C(=O)CN=C(c2ccccc2)c2cc(Cl)ccc21 (configuration not stated),97,> 77.5,78.6,> 100,22.5,> 100,> 55.7,98.3,> 100,> 100,> 100,8.77,> 100,> 27.3,> 100,8.99
C1CN2CCNCCN(CCN1)CC2,> 100,> 100,> 100,> 100,> 100,> 100,> 100,> 100,> 100,> 100,> 100,> 100,> 100,> 100,> 100,> 100

# Source: PubChem BioAssay (NCI)
